Test results reported in patent US12715851B2, “4′-substituted analogues of fisetin and their use in the treatment of cancer” (Stellenbosch University, priority 2020, dated 2026).

Tests used:
H1299 cells = experiment: Western blot of signalling, cell cycle and apoptosis markers; type: cell-based, human
Description: Similarly, in H1299 cells analogue 3a induced a 11.7 to 14.9% cell death (FIG. 4D right) compared to 3.8% in control cells. Analogue 3c (FIG. 4E right) and analogue 3e (FIG. 4F right) induced cell death of 8.2 to 15.1% and 8.8 to 16.6% respectively. For western blot experiments, two concentrations were used, i.e. the IC50 concentration and the next higher concentration utilized for cell proliferation for each cell line.
In H1299 cells (FIG. 4H), the higher concentrations of all three Fisetin analogues decreased the expression of pErk1/2. […]
The decreased expression of these proteins explains the decreased cell proliferation in both A549 and H1299 cells. […] Consistent with A549 data, all three the Fisetin analogues decreased the expression of anti-apoptotic protein Bcl-2 at both the concentrations. In H1299 cells, all the analogues increased cleaved Caspase-3 compared to control untreated cells. Thus, modulation of apoptosis regulatory proteins has caused apoptosis in both A549 and H1299 cells by the tested Fisetin analogues.

[1] = system: lipid peroxidation (MDA formation); experiment: Hepatotoxicity: lipid peroxidation assay on microsomal liver fraction (TBARS); type: in vivo, swiss albino mice; conditions: microsomal liver fraction of treated mice
Method: (§1) Hepatotoxicity is considered to be one of the major challenges for drug development schemes. The liver is the primary organ for the metabolism or biotransformation of a given drug. To assess the hepatotoxicity of these compounds, the effects of Fisetin and analogue 3c on various hepatic enzymes was assessed.
(§2) A lipid peroxidation assay was performed on microsomal liver fraction and determined in terms of TBARS formation. […] The modulatory effects of Fisetin and analogue 3c were determined on the specific activities of cytochrome b5 reductase (Cytb5R) and cytochrome P450 reductase (CytP450R), phase I enzyme of xenobiotic metabolism. Fisetin and analogue 3c caused reduction in the specific activity of cytochrome b5 reductase. Fisetin decreased Cytb5R specific activity by 66% whereas analogue 3c (50 mg/kg) caused a 36% reduction in specific activity (FIG. 7F). An increase in specific activity of CytP450R by Fisetin and analogue 3c was observed. Fisetin and analogue 3c (50 mg/kg) increased the specific activity by 15% and 13%, respectively (FIG. 7G). Next, the specific activities of phase II enzymes, glutathione S-transferase (GST) and reduced glutathione (GSH) were measured. […] Fisetin and analogue 3c (50 mg/kg) caused a decrease in specific activity of GSH by 34% and 7%, respectively (FIG. 7I). […] These analogues are therefore likely to be effective and safe phytochemicals.

[2] = system: cytochrome b5 reductase (Cytb5R); experiment: Hepatotoxicity: specific activity of cytochrome b5 reductase; type: in vivo, swiss albino mice; conditions: 50 mg/kg orally, two weeks
Method: as §1, §2

H1299 lung cancer cells = experiment: Trypan blue cell exclusion assay, cell proliferation and death; type: cell-based; conditions: Homo sapiens, NCI-H1299, H1299, 48 h, read-out: IC50 concentration
Method: (§3) To evaluate the effect of Fisetin analogues 3a, 3c and 3e on cell proliferation and death of human lung cancer cells, trypan blue cell exclusion assays were performed. A549 and H1299 cancer cells were treated with different concentrations of three selected Fisetin analogues for 48 h. The Fisetin analogues decreased the viability of cells and caused cell death in both the cell lines in a concentration dependent fashion. A549 and H1299 cells were treated with 5, 10 and 20 μM of Fisetin analogues for 48 h. All three analogues decreased cell proliferation and induced cell death.

A549 cells = experiment: as above; type: cell-based; conditions: Homo sapiens, A549, 48 h, read-out: IC50 concentration
Method: as §3

## O=c1c(O)c(-c2ccc(Br)cc2)oc2cc(O)ccc12 [analogue 3c, 4′-Bromo-3,7-dihydroxyflavone]
H1299 cells; IC50 concentration and 10 μM
  Phospho-Cdc-2 expression: higher concentration of analogue 3c and both concentrations of analogue 3e decreased the expression of phospho-Cdc-2
  Total Cdc-2: marginally affected by higher concentration
  expression of Bax: increased the expression of pro-apoptotic protein Bax
  expression of Cyclin B1: decreased in all treatments, except for the lower concentration of analogue 3c
  expression of phospho Akt: completely undetected
  expression of phospho-EGFR: decreased the expression of both phospho and total EGFR
  expression of total Akt: completely undetected
  expression of total EGFR: decreased the expression of both phospho and total EGFR
  expression of total Erk1/2: decreased the expression of total Erk1/2 significantly
H1299 cells; higher concentration (10 μM)
  expression of total Stat-3: decreased the expression of total Stat-3 at higher concentrations
[1]
  MDA formation (TBARS): No significant change
[2]
  reduction in specific activity of cytochrome b5 reductase: 36%
H1299 lung cancer cells
  IC50: 5.4 µM
A549 cells
  IC50: 12.1 µM
